Tested on: Saccharomyces cerevisiae PNY0571
Test: Glucose consumption rate in high cell density culture in YPD
Format: cell-based
Conditions: about 3.9 gdcw/L
Description: S. cerevisiae strains used were PNY0569 CEN.PK122 (MATa MAL2-8c SUC2/MATalpha MAL2-8c SUC2) and PNY0571 (CEN.PK 113-7D MATa MAL2-8c SUC2), obtained from Centraalbureau voor Schimmelcultures, Fungal and Yeast Collection (Netherlands) as well as PNY0602 and PNY0614. PNY0602 and PNY0614 were isolated from a mutagenized culture of PNY0571. PNY0571 (CEN.PK 113-7D) was subjected to 10 rounds of chemical mutagenesis with N-methyl-N′-nitro-N-nitrosoguanidine (NTG) and ethylmethane sulfonate (EMS) using standard methods (Barbour, L., M. Hanna and W. Xiao. 2006. Mutagenesis, p. 121-127. In W. Xiao (ed.), Yeast Protocols, Second Edition. Humana Press, NJ). Cells were grown overnight in 10 ml of YPD at 30° C. with shaking. The overnight culture was centrifuged, and the pellet was resuspended in 50 mM potassium phosphate buffer, pH 7.0. The cells were again centrifuged and resuspended in 10 ml of the same buffer. A portion of the resuspended cells (2.5 ml) was transferred to a plastic 15 ml screw cap centrifuge tube, and the cells were treated with NTG (10 μg/ml final concentration) or EMS (3% w/v) for 40 minutes at 30° C. without shaking. The mutagen was inactivated by addition of an equal volume of filter sterilized 10% (w/v) sodium thiosulfate. The treated cells were centrifuged and resuspended in water two times. The treatment protocol involved repeated cycles of treating yeast cells with one of the mutagens (e.g., NTG), allowing the surviving cells to grow out overnight in YPD with 1% isobutanol, and then treating the overnight culture with the other mutagen (e.g., EMS). After the fifth cycle (i.e., a total of ten treatments with mutagen), cells were screened for isobutanol tolerance. PNY0602 was isolated after prolonged (24 h) exposure to 3.0% isobutanol. PNY0614 was isolated after 5 cycles of repeated freezing and thawing of the mutagenized culture by resuspending mutagenized cells in distilled water and transferring the cells to dry-ice ethanol bath and a 37° C. water bath for 20 minutes each.
Glucose consumption rates in the presence of isobutanol in YPD were also determined when the cell concentration was about 8 O.D. (about 3.9 gdcw/L). Saccharomyces cerevisiae strains PNY0571, PNY0602 and PNY0614 were plated from a freezer vial onto YPD agar (Teknova, Hollister, Calif.; Cat. #Y1000) and incubated overnight at 30° C. Cells from the YPD plate were inoculated into a 25 ml pre-culture of YPD broth (Teknova, Hollister, Calif.; Cat. #Y5000) with an initial OD600 of 0.06 to 0.08, and this culture was grown for 7 hours in an air shaker at 30° C. An aliquot of the pre-culture was inoculated into 200 ml of YPD broth with an initial OD600 of 0.06 to 0.08, and this culture was incubated with aeration at 30° C. for approximately 17 hours. The optical density of the culture was determined, the culture was centrifuged and the cells were resuspended in fresh YPD broth to yield an OD600 of 8. At this point, an aliquot of 10 ml of the culture was used for a dry cell weight determination, which gave dry cell weight in the range of 3.89 gdcw/L.
20 ml cultures were transferred to flasks that contained 0.0%, 0.5%, 0.75%, 1.0%, 1.25%, 1.5%, 1.75%, 2.0% and 2.5% isobutanol. Time of addition of cells was referred to as 0 hours. At various times samples (500 to 700 ul) were transferred to a tube containing an equal volume of 10% TCA. Samples were centrifuged and glucose determined in the YSI glucose analyzer (YSI 2700 Select).

Compound: CC(C)CO [Isobutanol, isobutanol]
- Glucose consumed per gdcw per hour (PNY0571, 0.5% isobutanol): 2.1 per gdcw per hour
- Glucose consumed per gdcw per hour (PNY0571, 0.75% isobutanol): 2.0 per gdcw per hour
- Glucose consumed per gdcw per hour (PNY0571, 1% isobutanol): 1.9 per gdcw per hour
- Glucose consumed per gdcw per hour (PNY0571, 1.5% isobutanol): 1.0 per gdcw per hour
- Glucose consumed per gdcw per hour (PNY0571, 1.75% isobutanol): 0.8 per gdcw per hour
- Glucose consumed per gdcw per hour (PNY0571, 2% isobutanol): 0.6 per gdcw per hour
- Glucose consumed per gdcw per hour (PNY0571, 2.5% isobutanol): 0.3 per gdcw per hour
